Values of other authors as cited in patent US12636262B2, “Process for the preparation of topical formulation” (Neuheit Pharma Technologies Pvt. Ltd, priority 2019, dated 2026).

Settings: reported

oral bioavailability: 40-60%
SMILES: CC(=O)Oc1cccc2c1C(=O)c1c(OC(C)=O)cc(C(=O)O)cc1C2=O [Diacerein, 4,5-diacetyloxy-9,10-dioxo-anthracene-2-carboxylic acid]
